Here are results for five compounds from patent US20240293349A1, “USE OF AN RXR AGONIST IN TREATING DRUG RESISTANT HER2+ CANCERS” (Io Therapeutics, Inc., priority 2022, published 2024).

A word on the inhibition: it is the change of the read-out against control, counted positive when it falls. As a reminder, the IC50 is the point on the concentration scale where inhibition reaches its midpoint. Low values mean greater potency in that assay, high ones weaker potency in that assay.

Where only a bound is given, the exact number is not on record here.

One assay relates to SkBr3 cells. In words: Inhibition of breast cancer cell growth, DAPI nuclei count. The assay is classed as cell-based. As to conditions: for inhibition at 1 µM: Homo sapiens; for inhibition at 1 µM / DAPI Nuclei Count: SkBr3 cells, IRX4204 1000 nM. From the text: MCF7 is an ER^+ PR^+ Her2^− cell line. SkBr3 is an ER^− PR^− Her2^+ cell line. […] After a further 6 days, the cells were fixed with 4% paraformaldehyde in phosphate buffered saline (PBS). Nuclei were then stained with DAPI and imaged with the MetaXpress® microscope (Molecular Devices, San Jose, CA). Cell nuclei were segmented and then counted by defining pixel intensity over background and object size, using the algorithm of the MetaXpress® image analysis software. […]

In another assay the test system is MDA-MB-361 cells. The assay is described as above. The format is cell-based. The following applies: IRX4204 1000 nM; for inhibition at 1 µM: Homo sapiens. The source says:
(§1) MCF7 is an ER^+ PR^+ Her2^− cell line. SkBr3 is an ER^− PR^− Her2^+ cell line. […] After a further 6 days, the cells were fixed with 4% paraformaldehyde in phosphate buffered saline (PBS). Nuclei were then stained with DAPI and imaged with the MetaXpress® microscope (Molecular Devices, San Jose, CA). Cell nuclei were segmented and then counted by defining pixel intensity over background and object size, using the algorithm of the MetaXpress® image analysis software. Experimental data points were performed at a minimum of quadruplicate, and results were reported as average cell count ±standard deviation (SD).
(§2) To assess if this improved growth inhibition effect was synergistic, the percent inhibition observed for the highest concentrations of the combined therapeutic agents was compared to the percent inhibition that would be expected for the combination based on the observed inhibition of the therapeutic agents used alone, if the agents acting independently, that is, without interaction (see Table 1). That is, PAE=(FE1+((1−FE1)×FE2))×100, where PAE is the predicted additive effect, FE1 is the observed fractional effect of a 1st treatment, and FE2 is the observed fractional effect of a 2nd treatment.
(§3) Additionally the panel of breast cancer cell lines was expanded to also include the ER^+ PR^+ Her2^+ cell line BT474 and the ER^+ PR^− Her2^+ cell line MDA-MB-361.
(§4) To assess if this improved growth inhibition effect was synergistic, the percent inhibition observed for the highest concentrations of the combined therapeutic agents was compared to the percent inhibition that would be expected for the combination based on the observed inhibition of the therapeutic agents used alone, if the agents acting independently, that is, without interaction (see Tables 2-4).

The test system of a further assay is BT474 cells. The assay is described as above. As to conditions: IRX4204 1000 nM; for inhibition at 1 µM: Homo sapiens. The assay is classed as cell-based.
Text: as §1, §2, §3, §4

In another assay the test system is SkBr3. Put plainly: IC50 of Her2 kinase inhibitors on Her2-amplified cell lines. The assay is classed as cell-based. As to conditions: Homo sapiens, SK-BR-3.
The subject of the next assay is AU565. Described as above. The assay is classed as cell-based. The following applies: Homo sapiens.
In assay [1] the test system is HCC1954 human breast cancer cells. Put plainly: Inhibition of growth of a Her2-targeted agent resistant Her2+ cell line, DAPI nuclei count. The format is cell-based. The following applies: for resistance of the cell line to the agent used individually: HCC1954, as compared to SkBr3; for growth inhibitory effect (FIGS. 4A-B, 5A-B), in words: HCC1954, 6 days, IRX4204 10, 100 or 1000 nM. The procedure: HCC1954 is Her2^+ cancer cell line derived from a ductal carcinoma of the breast.
HCC1954 human breast cancer cells were seeded at 3000 cells per well in 96-well plates and treated with neratinib [1 or 10 nM] or DMSO (0.1%) in combination with IRX4204 [10, 100, or 1000 nM]. After 6 days of treatment, cells were fixed with 4% paraformaldehyde. Nuclei were stained with DAPI, imaged using ImageXpress® Pico (Molecular Devices) and counted using CellReporterXpress® Analysis Software (FIGS. 4A-B) Each data point represents six replicates. Statistical significance was determined using the Bonferroni-Dunn method of multiple t-tests. Each day was analyzed individually, without assuming a consistent SD (*p<0.01).
The experiment was also conducted using tucatinib or lapatinib in place of neratinib.

In the next assay the test system is HCC1954. In words: IC50 of Her2 kinase inhibitors on Her2-amplified cell lines. The assay is classed as cell-based. The following applies: Homo sapiens.
For a further assay, the system named is FXR/RXR. In words: Activation of permissive RXR heterodimers.
The subject of a further assay is LXR/RXR. Put plainly: Activation of permissive RXR heterodimers.
The next assay relates to Nurr1/RXR heterodimer. In words: Activation of permissive RXR heterodimers.
In the next assay the test system is RAR/RXR. In words: Activation of non-permissive RXR heterodimers.
The next assay concerns MCF7 cells. Put plainly: Inhibition of breast cancer cell growth, DAPI nuclei count. The following applies: Her2− MCF7 cells; IRX4204 0-1000 nM, trastuzumab 0-10 μg/ml; 6 days. The assay is classed as cell-based.
Text: MCF7 is an ER^+ PR^+ Her2^− cell line. SkBr3 is an ER^− PR^− Her2^+ cell line. […] After a further 6 days, the cells were fixed with 4% paraformaldehyde in phosphate buffered saline (PBS). Nuclei were then stained with DAPI and imaged with the MetaXpress® microscope (Molecular Devices, San Jose, CA). Cell nuclei were segmented and then counted by defining pixel intensity over background and object size, using the algorithm of the MetaXpress® image analysis software.
as §3

The subject of the next assay is RXR homodimers. Put plainly: Activation of RXR homodimers.
The next assay deals with PPAR/RXR. Put plainly: Activation of permissive RXR heterodimers.
Assay [2] deals with PPAR/RXR, FXR/RXR, or LXR/RXR. The following applies: cited from earlier work.
Where [3] appears, read: SK-BR-3, lapatinib experiment, Lapatinib 1000 nM.
[4] abbreviates: lapatinib experiment, Lapatinib 1000 nM, control 19855.
[5] abbreviates: MDA-MB-361 cells, lapatinib experiment, Lapatinib 1000 nM, control 6696.
Setting [6] is: BT-474, lapatinib experiment, Lapatinib 1000 nM.
Where [7] appears, read: lapatinib experiment, Lapatinib 1000 nM, control 2937.
Setting [8] is: SK-BR-3, neratinib experiment, Neratinib 1000 nM.
[9] abbreviates: neratinib experiment, Neratinib 1000 nM, control 6696.
Setting [10] is: MDA-MB-361 cells, neratinib experiment, Neratinib 1000 nM, control 5297.
Where [11] appears, read: BT-474, neratinib experiment, Neratinib 1000 nM.
The mark [12] stands for this setting: neratinib experiment, Neratinib 1000 nM, control 2192.

Turning to `CS(=O)(=O)CCNCc1ccc(-c2ccc3ncnc(Nc4ccc(OCc5cccc(F)c5)c(Cl)c4)c3c2)o1` [Lapatinib, reference compound], the inhibition at 1 µM in the assay on SkBr3 cells (setting [3]) was found to be 88.9%; in the assay on MDA-MB-361 cells (MDA-MB-361 cells, lapatinib experiment, Lapatinib 1000 nM), 86.5%; in the assay with BT474 cells (setting [6]), 58.8%. In addition, the “DAPI Nuclei Count” value turned out to be 2211 in the assay with SkBr3 cells (setting [4]), 903 in the assay on MDA-MB-361 cells (setting [5]) and 1211 in the assay on BT474 cells (setting [7]). The IC50 with SkBr3 was 152 nM; with AU565, 294 nM; with HCC1954, above 1400 nM. The “resistance of the cell line to the agent used individually” value (“resistance of the cell line” for short) in assay [1] is given as “resistant”. Moreover, the “growth inhibitory effect (FIGS. 4A-B, 5A-B), in words” value in [1] is reported as “some small effect”.

In the case of `CCOc1cc2ncc(C#N)c(Nc3ccc(OCc4ccccn4)c(Cl)c3)c2cc1NC(=O)/C=C/CN(C)C` [Neratinib, reference compound], the inhibition at 1 µM in the assay on SkBr3 cells (setting [8]) was 86.5%; with MDA-MB-361 cells (MDA-MB-361 cells, neratinib experiment, Neratinib 1000 nM), 95.3%; with BT474 cells (setting [11]) it was 91.8%. Further, the entries for the “DAPI Nuclei Count” value in the assay with SkBr3 cells (setting [9]), in the assay on MDA-MB-361 cells (setting [10]) and in the assay with BT474 cells (setting [12]) were 903, 249 and 180, respectively. Also, the IC50 in the assay with SkBr3 is 7 nM; in the assay on AU565 it was 20 nM; with HCC1954, above 100 nM. Further, the “resistance of the cell line” value in [1] is given as “resistant”.

Consider `CC(/C=C/[C@@H]1C[C@]1(C)c1ccc2c(c1)C(C)(C)CCC2(C)C)=C\C(=O)O` [IRX4204, 3,7-dimethyl-6(S),7(S)-methano,7-[1,1,4,4-tetramethyl-1,2,3,4-tetrahydron-aphth-7-yl]2(E), 4(E) heptadienoic acid], for which the “growth inhibitory effect (FIG. 1B), in words” value with SkBr3 cells (Her2+ SkBr3 cells, IRX4204 0-1000 nM, trastuzumab 0-10 μg/ml, 6 days) is “moderate growth inhibitory effect”. For the same compound, the inhibition at 1 µM in the assay with SkBr3 cells (SK-BR-3, 144 h, 6 days, Herceptin 1000 ng, alone or combined) is 29.4%; in the assay on SkBr3 cells (setting [3]), 4.8%; in the assay on SkBr3 cells (setting [8]), 22.1%; in the assay on MDA-MB-361 cells (MDA-MB-361, MDA-MB-361 cells, lapatinib experiment, Lapatinib 1000 nM), 22.1%; in the assay with MDA-MB-361 cells (MDA-MB-361, MDA-MB-361 cells, neratinib experiment, Neratinib 1000 nM) it was 43.6%; in the assay on BT474 cells (setting [6]), -15.7%. The inhibition at 1 µM in the assay on BT474 cells (setting [11]) is 6.8%. The “DAPI Nuclei Count” value is 18274 in the assay with SkBr3 cells (6 days, Herceptin 1000 ng, alone or combined, control 25958); 18906 with SkBr3 cells (setting [4]); 5218 in the assay on SkBr3 cells (setting [9]); 5218 with MDA-MB-361 cells (setting [5]); 2459 with MDA-MB-361 cells (setting [10]); 3399 in the assay on BT474 cells (setting [7]). Also, the “DAPI Nuclei Count” value in the assay with BT474 cells (setting [12]) is 2043. The “activation of heterodimer, in words” value with FXR/RXR is “does not activate”; in the assay with LXR/RXR, “does not activate”; with Nurr1/RXR heterodimer, “specifically activates”; in the assay with RAR/RXR it was “does not activate”; in the assay with PPAR/RXR, “does not activate”. Besides, the “resistance of the cell line” value in [1] is reported as “highly resistant”. Besides, the “growth inhibitory effect (FIGS. 4A-B, 5A-B), in words” value in assay [1] is given as “no growth inhibitory effect”. The “growth inhibitory effect (FIG. 1A), in words” value in the assay with MCF7 cells is “neither agent had more than marginal effect”. Moreover, the “activation of RXR homodimers, in words” value with RXR homodimers is listed as “specifically activate”.

`Cc1cc(Nc2ncnc3ccc(NC4=NC(C)(C)CO4)cc23)ccc1Oc1ccn2ncnc2c1` [Tucatinib] showed an IC50 in the assay with SkBr3 of 22 nM. For the same compound, in assay [1], the “resistance of the cell line” value is reported as “resistant” and the “growth inhibitory effect (FIGS. 4A-B, 5A-B), in words” value is “some small effect”. In addition, the IC50 in the assay with HCC1954 is above 2000 nM.

For `Cc1cc2c(cc1C1(c3ccc(C(=O)O)cn3)CC1)C(C)(C)CCC2(C)C` [LGD268], in assay [2], the “activation of one or more of PPAR/RXR, FXR/RXR, or LXR/RXR, in words” value is “activates”.
